Reference: US5336673A, “3-substituted cephem compounds” (priority 1990, dated 1994)
Values after ≈ are worked out from the molar mass of the structure shown. Read-outs that look alike come from different tables or passages of the source.

Legend:
[1] = tested on: Streptococcus pyogenes A 308; experiment: Antibacterial activity, MIC by Agar dilution method, standard test strain 1; type: cell-based; settings: A308, 10^7 CFU/ml, 37° C., 18 hours
Experimental: (§1) The antibacterial activity was determined by an Agar dilution method as described below.
(§2) That is, the two-fold serial dilutions of the antibacterial compounds (1000 μg compound/ml) were prepared and dispersed in Muller Hinton Agar in a petri dish to a concentration of 100~0.002 μg/ml. The culture broths of standard test strains were inoculated on the medium to a concentration 10^7 CFU/ml, and incubated at 37° C. for 18 hours. The concentration of compounds(I) at which the strains were not grown was regarded as minimum inhibition concentration (MIC).
(§3) The results of antibacterial activity test of the representative examples of the compound (I) against 20 standard test strains shown in terms of MIC were indicated in Table 1.
1. Streptococcus pyogenes A 308

[2] = tested on: Streptococcus pyogenes A 77; experiment: Antibacterial activity, MIC by Agar dilution method, standard test strain 2; type: cell-based; settings: A77, 10^7 CFU/ml, 37° C., 18 hours
Experimental: as §1, §2, §3
2. Streptococcus pyogenes A 77

[3] = tested on: Streptococcus faecium MD 86; experiment: Antibacterial activity, MIC by Agar dilution method, standard test strain 3; type: cell-based; settings: Enterococcus faecium, MD86, 10^7 CFU/ml, 37° C., 18 hours
Experimental: as §1, §2, §3
3. Streptococcus faecium MD 86

[4] = tested on: Staphylococcus aureus SG 511; experiment: Antibacterial activity, MIC by Agar dilution method, standard test strain 4; type: cell-based; settings: SG511, 10^7 CFU/ml, 37° C., 18 hours
Experimental: as §1, §2, §3
4. Staphylococcus aureus SG 511

[5] = tested on: Staphyloccus aureus 285; experiment: Antibacterial activity, MIC by Agar dilution method, standard test strain 5; type: cell-based; settings: 10^7 CFU/ml, 37° C., 18 hours
Experimental: as §1, §2, §3
5. Staphyloccus aureus 285

[6] = tested on: Staphylococcus aureus 503; experiment: Antibacterial activity, MIC by Agar dilution method, standard test strain 6; type: cell-based; settings: 10^7 CFU/ml, 37° C., 18 hours
Experimental: as §1, §2, §3
6. Staphylococcus aureus 503

[7] = tested on: Escherichia coli O 55; experiment: Antibacterial activity, MIC by Agar dilution method, standard test strain 7; type: cell-based
Experimental: as §1, §2, §3

[8] = tested on: Escherichia coli DC O; experiment: Antibacterial activity, MIC by Agar dilution method, standard test strain 8; type: cell-based; settings: Escherichia coli DC O; 10^7 CFU/ml, 37° C., 18 hours; read-out: MIC
Experimental: as §1, §2, §3

[9] = tested on: Escherichia coli DC 2; experiment: Antibacterial activity, MIC by Agar dilution method, standard test strain 9; type: cell-based; settings: DC2; Escherichia coli DC 2; 10^7 CFU/ml, 37° C., 18 hours; read-out: MIC
Experimental: as §1, §2, §3

[10] = tested on: Escherichia coli TEM; experiment: Antibacterial activity, MIC by Agar dilution method, standard test strain 10; type: cell-based
Experimental: as §1, §2, §3

[11] = tested on: Escherichia coli 1507E; experiment: Antibacterial activity, MIC by Agar dilution method, standard test strain 11; type: cell-based
Experimental: as §1, §2, §3

[12] = tested on: Pseudomonas aeruginosa 9027; experiment: Antibacterial activity, MIC by Agar dilution method, standard test strain 12; type: cell-based; settings: 10^7 CFU/ml, 37° C., 18 hours
Experimental: as §1, §2, §3
12. Pseudomonas aeruginosa 9027

[13] = tested on: Pseudomonas aeruginosa 1592E; experiment: Antibacterial activity, MIC by Agar dilution method, standard test strain 13; type: cell-based; settings: 10^7 CFU/ml, 37° C., 18 hours
Experimental: as §1, §2, §3
13. Pseudomonas aeruginosa 1592E

[14] = tested on: Pseudomonas aeruginosa 1771; experiment: Antibacterial activity, MIC by Agar dilution method, standard test strain 14; type: cell-based; settings: 10^7 CFU/ml, 37° C., 18 hours
Experimental: as §1, §2, §3
14. Pseudomonas aeruginosa 1771

[15] = tested on: Pseudomonas aeruginosa 1771M; experiment: Antibacterial activity, MIC by Agar dilution method, standard test strain 15; type: cell-based; settings: 18 h
Experimental: as §1, §2, §3
15. Pseudomonas aeruginosa 1771M

[16] = tested on: Salmonella typhimurium; experiment: Antibacterial activity, MIC by Agar dilution method, standard test strain 16; type: cell-based; settings: Salmonella enterica, 10^7 CFU/ml, 37° C., 18 hours
Experimental: as §1, §2, §3
16. Salmonella typhimurium

[17] = tested on: Klebsiella oxytoca 1082E; experiment: Antibacterial activity, MIC by Agar dilution method, standard test strain 17; type: cell-based; settings: 10^7 CFU/ml, 37° C., 18 hours
Experimental: as §1, §2, §3

[18] = tested on: Klebsiella aerogenes 1522E; experiment: Antibacterial activity, MIC by Agar dilution method, standard test strain 18; type: cell-based; settings: Klebsiella aerogenes 1522E; 10^7 CFU/ml, 37° C., 18 hours; read-out: MIC
Experimental: as §1, §2, §3
18. Klebsiella aerogenes 1522E

[19] = tested on: Enterobacter cloacae P99; experiment: Antibacterial activity, MIC by Agar dilution method, standard test strain 19; type: cell-based; settings: P99, 18 h
Experimental: as §1, §2, §3
19. Enterobacter cloacae P99

[20] = tested on: Enterobacter cloacae 1321E; experiment: Antibacterial activity, MIC by Agar dilution method, standard test strain 20; type: cell-based
Experimental: as §1, §2, §3
20. Enterobacter cloacae 1321E

[21] = Acute toxcity test; settings: in vivo, male ICR-mouse, after 1 week
Experimental: Further, in order to illustrate the usefulness of the compounds (I) as a drug, compounds of Examples 12, 18 and 36 were tested for acute toxcity by using 4 weeks-old male ICR-mouse as a test animal.
the compounds were dissolved in physiological saline and phosphate buffered solution (pH 7.0), or if they were […], suspended in carboxymethylcellulose or gum Arabic and then mixed with phosphate buffered solution.
The solution or mixture was administered to the tested animals intravenously or subcutaneously and, after 1 week, the number of surviving animals was calculated.

[22] = tested on: Gram-positive strains as well as Gram-negative strains including Pseudomonas; experiment: Antibacterial activity (summary in words); type: cell-based; settings: Gram-positive and Gram-negative strains
Experimental: as §1, §2

[23] = Escherichia coli 1507E, 10^7 CFU/ml, 37° C., 18 hours, read-out: MIC
[24] = sc, Subcutaneous administration
[25] = Escherichia coli TEM, 10^7 CFU/ml, 37° C., 18 hours, read-out: MIC
[26] = Enterobacter cloacae 1321E, 10^7 CFU/ml, 37° C., 18 hours, read-out: MIC
[27] = O55, Escherichia coli O 55, 10^7 CFU/ml, 37° C., 18 hours, read-out: MIC

Row | Compound | MIC [1] | MIC [2] | MIC [3] | MIC [4] | MIC [5] | MIC [6] | MIC [8] | MIC [9] | MIC [11, 23] | MIC [12] | MIC [13] | MIC [14] | MIC [15] | MIC [16] | MIC [17] | MIC [18] | MIC [19] | antibacterial activity (in words) [22] | MIC [10, 25] | MIC [20, 26] | also measured
1 | CO/N=C(\C(=O)N[C@@H]1C(=O)N2C(C(=O)[O-])=C(C[n+]3cn(N)cn3)CS[C@H]12)c1csc(N)n1 [Example 12, (6R,7R)-7-[(Z)-2-(2-aminothiazol-4-yl)-2-methoxyiminoacetamido]-3-[(4-amino-1,2,4-triazol-2-ium)methyl]-ceph-3-em-4-carboxylate] | 0.007 µg/mL (≈ 0.0146 µM) | 0.007 µg/mL (≈ 0.0146 µM) | > 100 µg/mL | 1.56 µg/mL (≈ 3.26 µM) | 3.12 µg/mL (≈ 6.52 µM) | 0.781 µg/mL (≈ 1.63 µM) | 0.098 µg/mL (≈ 0.204 µM) | 0.097 µg/mL (≈ 0.202 µM) | 0.098 µg/mL (≈ 0.204 µM) | 12.5 µg/mL (≈ 26.1 µM) | 6.25 µg/mL (≈ 13 µM) | 6.25 µg/mL (≈ 13 µM) | 0.195 µg/mL (≈ 0.407 µM) | 0.098 µg/mL (≈ 0.204 µM) | 1.56 µg/mL (≈ 3.26 µM) | 0.049 µg/mL (≈ 0.102 µM) | 100 µg/mL (≈ 209 µM) | excellent antibacterial activity |  |  | MIC ([7]; Escherichia coli, O55, 18 h): 0.025 µg/mL (≈ 0.0521 µM); MIC ([10]; Escherichia coli, 18 h): 0.049 µg/mL (≈ 0.102 µM); MIC ([20]; Enterobacter cloacae, 1321E, 18 h): 0.025 µg/mL (≈ 0.0521 µM); LD50 at 168 h [21, 24]: > 6000 mg/kg; LD50 at 168 h ([21]; Intravenous administration): > 4000 mg/kg
2 | CO/N=C(\C(=O)N[C@@H]1C(=O)N2C(C(=O)[O-])=C(C[n+]3cn(N)c4ccccc43)CS[C@H]12)c1csc(N)n1 [Example 19, (6R,7R)-7-[(Z)-2-(2-aminothiazol-4-yl)-2-methoxyiminoacetamido]-3-[(1-aminobenzimidazol-3-ium)methyl]-ceph-3-em-4-carboxylate] | 0.013 µg/mL (≈ 0.0246 µM) | 0.007 µg/mL (≈ 0.0132 µM) | > 100 µg/mL | 0.781 µg/mL (≈ 1.48 µM) | 0.781 µg/mL (≈ 1.48 µM) | 0.391 µg/mL (≈ 0.74 µM) | 0.391 µg/mL (≈ 0.74 µM) | 0.391 µg/mL (≈ 0.74 µM) | 0.391 µg/mL (≈ 0.74 µM) | 50 µg/mL (≈ 94.6 µM) | 25 µg/mL (≈ 47.3 µM) | 12.5 µg/mL (≈ 23.6 µM) | 0.781 µg/mL (≈ 1.48 µM) | 0.195 µg/mL (≈ 0.369 µM) | 3.12 µg/mL (≈ 5.91 µM) | 0.195 µg/mL (≈ 0.369 µM) | > 100 µg/mL | excellent antibacterial activity | 0.391 µg/mL (≈ 0.74 µM) | 0.195 µg/mL (≈ 0.369 µM) | MIC ([7]; Escherichia coli, O55, 18 h): 0.098 µg/mL (≈ 0.185 µM)
3 | CC(C)(O/N=C(\C(=O)N[C@@H]1C(=O)N2C(C(=O)[O-])=C(C[n+]3cn(N)cn3)CS[C@H]12)c1csc(N)n1)C(=O)O [Example 36, (6R,7R)-7-[(Z)-2-(2-aminothiazol-4-yl)-2-(2-carboxyprop-2-oxyimino)acetamido]-3-[(4-amino-1,2,4-triazol-2-ium)methyl]-ceph-3-em-4-carboxylate] | 0.098 µg/mL (≈ 0.178 µM) | 0.049 µg/mL (≈ 0.0888 µM) | 25 µg/mL (≈ 45.3 µM) | 1.56 µg/mL (≈ 2.83 µM) | 3.12 µg/mL (≈ 5.67 µM) | 1.56 µg/mL (≈ 2.83 µM) | 0.781 µg/mL (≈ 1.42 µM) | 0.195 µg/mL (≈ 0.354 µM) |  | 6.25 µg/mL (≈ 11.3 µM) | 6.25 µg/mL (≈ 11.3 µM) | 1.56 µg/mL (≈ 2.83 µM) | 0.098 µg/mL (≈ 0.178 µM) | 6.25 µg/mL (≈ 11.3 µM) | 100 µg/mL (≈ 181 µM) | 0.781 µg/mL (≈ 1.42 µM) | 100 µg/mL (≈ 181 µM) | excellent antibacterial activity | 3.12 µg/mL (≈ 5.67 µM) | 0.391 µg/mL (≈ 0.709 µM) | MIC [7, 27]: 0.195 µg/mL (≈ 0.354 µM); MIC ([11]; Escherichia coli, 1507E, 18 h): 1.56 µg/mL (≈ 2.83 µM); LD50 at 168 h [21, 24]: > 6000 mg/kg; LD50 at 168 h ([21]; Intravenous administration): > 4000 mg/kg
4 | CO/N=C(\C(=O)N[C@@H]1C(=O)N2C(C(=O)[O-])=C(C[n+]3nn(N)c4ccccc43)CS[C@H]12)c1nsc(N)n1 [Example 85, (6R,7R)-7-[(Z)-2-(5-amino-1,2,4-thiadiazol-3-yl)-2-methoxyiminoacetamido]-3-[(1-aminobenzotriazol-3-ium)methyl]-ceph-3-em-4-carboxylate] | 0.007 µg/mL (≈ 0.0132 µM) | 0.004 µg/mL (≈ 0.00754 µM) | 100 µg/mL (≈ 188 µM) | 0.391 µg/mL (≈ 0.737 µM) | 1.56 µg/mL (≈ 2.95 µM) | 0.391 µg/mL (≈ 0.737 µM) | 0.025 µg/mL (≈ 0.0471 µM) | 0.025 µg/mL (≈ 0.0471 µM) | 0.049 µg/mL (≈ 0.0924 µM) | 3.12 µg/mL (≈ 5.89 µM) | 3.12 µg/mL (≈ 5.89 µM) | 1.56 µg/mL (≈ 2.95 µM) | 1.56 µg/mL (≈ 2.95 µM) | 0.195 µg/mL (≈ 0.368 µM) | 0.781 µg/mL (≈ 1.47 µM) | 0.049 µg/mL (≈ 0.0924 µM) | 25 µg/mL (≈ 47.1 µM) |  | 0.025 µg/mL (≈ 0.0471 µM) | 0.007 µg/mL (≈ 0.0132 µM) | MIC [7, 27]: 0.007 µg/mL (≈ 0.0132 µM)
